Test results: PMC6403363, “Proteolytic Degradation of reduced Human Beta Defensin 1 generates a Novel Antibiotic Octapeptide” (Scientific Reports, 2019)
Where a SMILES comes first, the peptide text is derived from it. Where no end group is shown, it is not given here.

Key:
[1] = tested on: Candida albicans; experiment: Radial diffusion assay; type: cell-based; conditions: for antimicrobial activity against C. albicans (diameter of inhibition zones): 4 µg peptide, variants compared with RGKAKCCK (Fig. 1E,F, Fig. 2A)
Description: (§1) Antimicrobial radial diffusion assay was modified from reference[17] and performed as described earlier. Briefly, microorganisms were cultivated (anaerobic bacteria with AnaeroGen, Oxoid, UK) for up to 18 hours in liquid TSB medium. Log-phase cultures were washed and diluted to 4 × 10^6 colony forming units in 10 ml agar. Incubation was carried out in 10 ml of 10 mM sodium phosphate, either pH 7.4 or 5.7, containing 0.3 mg/ml of TSB powder and 1% (w/v) low EEO-agarose (AppliChem) with 0 or 1 mM dithiothreitol (DTT, Sigma-Aldrich) under anaerobic or aerobic conditions for three hours. 1 or 4 µg of synthetic, oxidized hBD-1 (Peptide Institute, Japan) and 1 or 4 µg of synthetic peptides (EMC Microcollections, Tuebingen) were filled into small punched wells in a final volume of 4 µl. This concentrated peptide solution dilutes while diffusing into the gel, thereby generating concentration-dependent, round-shaped inhibition zones when killing immobilized microorganisms.
(§2) An overlay-gel containing 6% (w/v) TSB powder, 1% agarose and 10 mM sodium phosphate buffer without DTT was poured onto the plates and after incubation for up to 48 h at 37 °C the diameter of inhibition zones was measured. Experiments were repeated at least three times; mean + SEM is shown.

[2] = tested on: Escherichia coli; experiment: Radial diffusion assay; type: cell-based; conditions: for antimicrobial activity against E. coli (diameter of inhibition zones): 4 µg peptide, variants compared with RGKAKCCK (Fig. 1E,F, Fig. 2A)
Description: as §1, §2

[3] = tested on: selected commensal and pathogenic microorganisms; experiment: Radial diffusion assay, semi-quantitative evaluation on a molar base; type: cell-based; conditions: 4 µg reduced hBD-1 equivalent to 254 µM, 1 µg octapeptide equivalent to 280 µM in the RDA
Description: as §1, §2

[4] = tested on: Streptococcus salivarius ssp. thermophilus; experiment: Radial diffusion assay; type: cell-based; conditions: 1 or 4 µg peptide per well, at least three experiments (Fig. 1D)
Description: as §1, §2

[5] = tested on: Bifidobacterium breve; experiment: Radial diffusion assay; type: cell-based; conditions: 1 or 4 µg peptide per well (Fig. 1D)
Description: as §1, §2

[6] = tested on: Bifidobacterium adolescentis; experiment: Radial diffusion assay; type: cell-based; conditions: 10 mM sodium phosphate, 1 or 4 µg peptide per well, at least three experiments (Fig. 1D)
Description: as §1, §2

[7] = tested on: Pseudomonas aeruginosa; experiment: Radial diffusion assay; type: cell-based; conditions: P. aeruginosa ATCC type strain (Figs 1D, 2A)
Description: as §1, §2

[8] = tested on: E. coli ATCC 25922; experiment: Flow cytometric assay, propidium iodide uptake; type: cell-based, Escherichia coli; conditions: 100 µg/ml peptide, 1 h, flow cytometry, at least three experiments (Fig. 3A)
Description: (§3) Approximately 1.5 × 10^6 CFU log-phase bacteria or overnight cultured C. albicans ATCC 10231 were used in a final volume of 100 µl TSB (1:6 diluted H2O). We added peptides in concentrations 50 and 100 µg/ml in a final volume of 10 µl and incubated theses suspensions for 1 h at 37 °C. Subsequently 2 µl of membrane potential sensitive dye DiBAC4(3) [bis-[1,3-dibutylbarituric acid)trimethine oxonol] (Thermo Scientific, USA) (50 µg/ml) or Propidium Iodide (Thermo Scientific, USA) (50 µg/ml) were added and incubated for 10 min at room temperature. Then samples were centrifuged (5 min, 7000 rpm, RT) and re-suspended in 300 µl PBS. The percentage of fluorescent positive cells was determined using Canto II flow cytometer (BD Bioscience) with DIVA software (BD Bioscience) as described earlier. Experiments were repeated at least three times and mean +/− SEM is shown.

[9] = tested on: antibiotic-resistant bacteria; experiment: Radial diffusion assay, drug-resistant clinical isolates overall; type: cell-based; conditions: 4 µg peptide, direct comparison of the four peptides (Fig. 2B)
Description: as §1, §2

[10] = tested on: C. albicans ATCC 10231; experiment: Flow cytometric assay, propidium iodide uptake; type: cell-based, Candida albicans; conditions: 100 µg/ml peptide, 1 h, flow cytometry (Fig. 3A)
Description: as §3

[11] = tested on: C. albicans SC5314; experiment: Model of oral candidiasis: RHOE infected with C. albicans; type: cell-based, Candida albicans; conditions: RHOE preincubated 1 h with 50 µg/ml peptide, infected with C. albicans for 24 h; for fungal load / invasion of the epithelium: histology (Fig. 5A)
Description: Octapeptides were diluted to 50 µg/ml in PBS, or an equivalent volume of 0.01% acetic acid were applied to the apical side of the RHOEs and incubated for 1 h. C. albicans SC5314 was synchronized as described previously. Yeast cells were washed three times in PBS and 1 × 10^5 CFU were used for infection of pre-treated RHEs. After 24 h RHEs were fixed with Karnovsky’s fixative. Post-fixed samples (1% OsO4, 1 h) were rinsed with distilled water, block-stained with uranyl acetate (2% in distilled water), dehydrated in alcohol (stepwise 30–96%), immersed in propylene oxide and embedded in glycide ether (polymerized 48 h at 60 °C, Serva, Heidelberg). Semi-thin sections were stained with toluidine blue and examined with a Nikon Eclipse 80i light microscope (magnification 1:400). Afterwards, fungal cells were simply coloured in red.

[12] = tested on: E. coli ATCC 25922; experiment: Broth microdilution assay (turbidity and CFU); type: cell-based, Escherichia coli; conditions: 100 µg/ml peptide, 2 hours at 37 °C, plated on agar (Fig. 2D)
Description: To differentiate between microbistatic and microbicidal activity we performed a broth microdilution assay. For that, E. coli ATCC25922 bacteria were incubated overnight at 37 °C, 150 rpm. C. albicans ATCC 10231 was grown at 30 °C overnight, 150 rpm in liquid TSB. Cells were collected by centrifugation (2500 rpm, 10 min, 4 °C), washed twice and resuspended in 10 mM sodium phosphate buffer containing 1% (w/v) TSB broth. Required C. albicans cell density was adjusted using a hemocytometer. For bacteria the optical density of OD600nm = 0.1 was determined. Approximately 5 × 10^5 CFU/ml bacteria or fungi were mixed with indicated peptide concentrations (1.25–200 µg/ml) in a final volume of 100 µl in 10 mM sodium phosphate buffer containing 1% (w/v) TSB broth and incubated for 2 hours at 37 °C. After incubation 10 µl per well were plated on LB-/ or YPD-agar plates to determine the CFU/ml. After that 100 µl of 6% TSB (w/v) were added and absorbance was measured at 600 nm (Tecan, Switzerland) and monitored for 18 hours. Growth relative to the positive control in % was plotted against peptide concentration. Experiments were carried out at least three times; mean ± SEM is shown.

[13] = tested on: trypsin; conditions: cited from earlier work
Text: Due to their ancient evolutionary origin and the strong demand for novel antimicrobial strategies, AMPs have been considered as potential antibiotic drug candidates. Mainly because they target “Achilles heels” of microorganisms, only few resistance mechanisms have been evolved over long time[14],[15]. Still, large-scale chemical synthesis of defensins containing three native disulphide-bridges has been a challenge and rendered the production expensive. Accordingly, the production of smaller, but yet antibiotic, fragments of defensins without disulphide bridges is a promising option. We have sh ...

[14] = type: in vitro ADME, human; conditions: pH 6.5
Description: (§4) 2 µg of oxidized or reduced hBD-1 were digested with pepsin or chymotrypsin at a protease: peptide ratio of 1:20 in HCl-acidified water, pH 3 (pepsin) or 10 mM sodium phosphate, pH 7.4 (chymotrypsin) for 90 min. Human duodenal secretion (pH 6.5–7) was taken during a routine gastroscopy by rinsing the duodenum with saline. Oxidized and reduced hBD-1 were incubated with human duodenal secretion for 30 min at 37 °C. As a control both peptides were incubated with 0.9% NaCl. Peptides were enriched with ZipTip (Millipore), co-crystallized with a-cyano-4-hydroxy cinnamic acid and analyzed with an ultraflex TOF/TOF machine (Bruker, Germany).

[15] = tested on: pepsin; experiment: Protease digestion with pepsin, fragments analysed by MALDI-MS; type: in vitro ADME; conditions: 2 µg peptide, protease:peptide 1:20, HCl-acidified water pH 3, 90 min
Description: as §4

[16] = tested on: chymotrypsin; experiment: Protease digestion with chymotrypsin, fragments analysed by MALDI-MS; type: in vitro ADME; conditions: 2 µg peptide, protease:peptide 1:20, 10 mM sodium phosphate pH 7.4, 90 min
Description: as §4

[17] = 1 or 4 µg peptide per well, at least three experiments (Fig. 1D)

RGKAKAAK [octapeptide with both cysteines replaced]
antimicrobial activity against C. albicans (diameter of inhibition zones) [1]: completely abolished activity | antimicrobial activity against E. coli (diameter of inhibition zones) [2]: completely abolished activity

RGKAKCAK [octapeptide with Cys7 replaced by alanine]
antimicrobial activity against C. albicans (diameter of inhibition zones) [1]: strongly decreased activity | antimicrobial activity against E. coli (diameter of inhibition zones) [2]: increased

C[C@H](NC(=O)[C@H](CCCCN)NC(=O)CNC(=O)[C@@H](N)CCCNC(=N)N)C(=O)N[C@@H](CCCCN)C(=O)N[C@@H](CS)C(=O)N[C@@H](CS)C(=O)N[C@@H](CCCCN)C(=O)O [RGKAKCCK] (H-RGKAKCCK-OH)
activity on a molar base compared with the full length-peptide [3]: less potent | antimicrobial activity (diameter of inhibition zones) [4]: convincing activity | antimicrobial activity (inhibition zones) [5]: no inhibition zones | antimicrobial activity (diameter of inhibition zones) [6]: convincing activity | antimicrobial activity (diameter of inhibition zones) [7]: neglectable antibiotic activity | antimicrobial activity (diameter of inhibition zones) [1, 17]: convincing activity | antimicrobial activity (diameter of inhibition zones) [2, 17]: convincing activity | PI uptake / bacterial killing (cell death) of E. coli [8]: ~100% | spectrum against the tested antibiotic-resistant bacteria [9]: inhibited growth of the most tested antibiotic-resistant bacteria | PI uptake of C. albicans [10]: up to 60% | epithelial damage ([11]; blinded scale 0 to 5 (Fig. 5B)): ameliorated epithelial damage | fungal load / invasion of the epithelium [11]: convincingly reduced the fungal load | decrease in CFU of E. coli compared to untreated controls [12]: more than 100 fold

RGKAKACK [octapeptide with Cys6 replaced by alanine]
antimicrobial activity against C. albicans (diameter of inhibition zones) [1]: strongly decreased activity | antimicrobial activity against E. coli (diameter of inhibition zones) [2]: increased

DHYNCVSSGGQCLYSACPIFTKIQGTCYRGKAKCCK [reduced hBD-1, hBD-1 after reduction of its three disulphide bridges, a linear peptide]
antimicrobial activity (inhibition zones) [5]: inhibited its growth | degradation by the intestinal protease trypsin [13]: can be degraded | digestion by human duodenal secretion (generation of fragment m/z 893.5) [14]: generated a fragment having an m/z of 893.5

AGKAKCCK [variant lacking Arg1]
antimicrobial activity against C. albicans (diameter of inhibition zones) [1]: completely inactive | antimicrobial activity against E. coli (diameter of inhibition zones) [2]: completely inactive

AGAAKCCK [variant lacking Arg1 and Lys3]
antimicrobial activity against C. albicans (diameter of inhibition zones) [1]: completely inactive | antimicrobial activity against E. coli (diameter of inhibition zones) [2]: completely inactive

CC(=O)N[C@@H](CCCNC(=N)N)C(=O)NCC(=O)N[C@@H](CCCCN)C(=O)N[C@@H](C)C(=O)N[C@@H](CCCCN)C(=O)N[C@@H](CS)C(=O)N[C@@H](CS)C(=O)N[C@@H](CCCCN)C(N)=O [Ac-RGKAKCCK-NH2] (Ac-RGKAKCCK-NH2)
fungal load / invasion of the epithelium [11]: invaded the whole epithelium | decrease in CFU of E. coli compared to untreated controls [12]: more than 100 fold

DHYNCVSSGGQCLYSACPIFTKIQGTCYRGKAKCCK (disulfide (positions not given here)) [oxidized hBD-1, host-defense peptide human beta-defensin 1 with three disulphide bridges]
proteolytic susceptibility towards pepsin [15]: protease resistant | antimicrobial activity (inhibition zones) [5]: no inhibition zones | proteolytic susceptibility towards chymotrypsin [16]: protease resistant
